# Test results published in patent US12501899B2, “Mite infestation treatment” (priority 2019, dated 2025).
# Structures can show the parent of a compound that is named as a salt. Where two headings read alike, the source gives them in different places.
# Assays:
# Ixodes ricinus = experiment: Oral acaricidal test on ticks in membrane feeding wells with treated blood; type: in vivo; conditions: for mortality at 1 ppm / mortality at 10 ppm / mortality at 100 ppm: Ixodes ricinus, po
# Protocol: A laboratory study was conducted to determine the oral acaricidal properties of three compounds according to the invention (SN0305, SN0306 and SN0307) against Ixodes ricinus. Each compound was tested at 1, 10 and 100 ppm, and compared to a negative control corresponding to solvent alone (0.1% DMSO). Amitraz at 100 ppm was used as a positive control.
# The Ixodes ricinus ticks (nymphs and adults) were placed for 24 hours on a membrane in feeding wells containing blood mixed with the tested compounds. Tick mortality (number of dead, moribund, or unaffected ticks in each well), attachment to the membrane (number of ticks attached/detached in each well), and the behavior (presence or absence of twitches) were examined 1, 3, 6, 12, 24, 48, 72, and 96 hours after the onset of tick exposure to the compounds.
# Ticks (Ixodes ricinus) were collected. Collected adult females were kept separate from the nymphs and both were placed in sterile tubes in a humidity chamber to provide ˜80% humidity and 17° C. Only healthy ticks (females/nymphs) were chosen for the experiment.
# Batches of 12 adults or nymphs were inserted into the feeding wells. After about 24 hours, their attachment was examined with a brush.
# The efficiency of three compounds (SN0305, SN0306 and SN0307), each tested at three concentrations (1, 10, 100 ppm), was compared to the solvent control (0.1% DMSO, Sigma-Aldrich D-5879; Lot 101K0028) and to the positive control (Amitraze at 100 ppm).
# Silicone-coated membranes with a thickness comprised between 110 and 140 μm were used for the construction of the feeding units.
# Feeding units (sterilized acrylic glass tubes) were placed in feeding wells made of sterilized six-well plates.
# 3.1 ml of sterile 10^−3 M ATP-enriched blood was applied to each feeding well. Feeding wells were then inserted into a heated water bath (FIG. 12) and maintained at 37° C.±2° C.
# Stock solutions of 100,000 ppm were prepared and tenth dilutions were carried out in 0.1% DMSO to reach the desired concentrations. After tick attachment (24 hours after placing the ticks in the feeding wells), 3.1 μl of the solutions were added to each feeding well containing 3.1 ml of blood. Blood was changed after 12 hours with fresh supplementation of the compounds to be tested. The ticks were exposed to the product for a total of 24 hours, after which the blood was again changed to fresh, untreated blood.
# Tick mortality (number of dead, moribund or unaffected ticks in each well), attachment (number of attached/detached ticks in each well) and behavior (presence, absence and intensity of convulsions) were examined 1, 3, 6, 12, 24, 48, 72, and 96 hours after the start of tick exposure to the compound.
# Varroa destructor = conditions: after 24 hours
# Protocol: About 300 bees (Apis mellifera) infected with Varroa destructor were taken from a hive superinfected with Varroa destructor. The bees were then placed in a device allowing to detach Varroa mites attached to the bees (device described in Community model n° 003419415-0001) filled with icing sugar. The device was stirred for 2 minutes to sample the Varroa mites attached to the bees. The icing sugar allows to interfere between the bee and the Varroa mite that was attached thereto. Varroa mites were harvested with icing sugar because they pass through the holes in the device, unlike bees. The Varroa mites were then separated from the icing sugar.
# The Varroa mites thus recovered were dispatched in boxes (10 Varroa mites per box).
# The bees were then dispatched in the boxes (10 per box).
# The bees were then put to sleep for a few minutes using CO2 (flow of 3 liters for 20 seconds) in order to deposit 1 μL of compound to be tested on their thorax using a pipette. It should be noted that the bees which received romifidine hydrochloride at a concentration of 10 μg/μL received 2 μL of product. The bees were unconscious for the time the compound to be tested was deposited, that is to say around three minutes, then they woke up.
# After thoracic deposition of the compound to be tested, the 10 bees from the same box were transferred to a box containing the 10 Varroa mites (cf. “Preparation of Varroa mites” above). Liquid sugar was left in each of the boxes to feed the bees during the observations. The series of boxes was then placed in an oven at […] with a humidity of 50% in order to approximate hive conditions as closely as possible.
# The mortality of Varroa mites and bees was then monitored 5 minutes, 2 hours, 4 hours and 24 hours after application of the compound to be tested to the bees. Dead Varroa mites correspond to Varroa mites detached from the bees. Dead bees correspond to bees which no longer move and which are often placed on their thorax.
# The following compositions were applied to the thorax of the bees: • Solvent, • Amitraz at 1 μg/μL in acetone, • Clonidine hydrochloride at 100 μg/μL, 10 μg/μL, 1 μg/μL and 0.1 μg/μL in methanol, • Detomidine hydrochloride monohydrate at 1 μg/μL in methanol, • Dexmedetomidine hydrochloride at 100 μg/μL, 10 μg/μL, 1 μg/μL and 0.1 μg/μL in methanol, • Romifidine hydrochloride at 10 μg/μL and at 5 μg/μL in methanol, • Tizanidine hydrochloride at 1 μg/μL in methanol, • Medetomidine hydrochloride at 0.1 μg/μL in ethanol, • Levomedetomidine hydrochloride at 100 μg/μL, 10 μg/μL, 1 μg/μL and 0.1 μg/μL in methanol, • Octopamine at 1 μg/μL in ethanol. Results
smiles,measurement,setting,value
"Cc1cccc([C@H](C)c2c[nH]cn2)c1C [Dexmedetomidine hydrochloride, (S)-4-[1-(2,3-dimethylphenyl)-ethyl]-1H-imidazole]",effect in terms of tick detachment (in words),"Ixodes ricinus; 1, 10, 100 ppm, nymphs and adults",very limited effect
same,detached nymphs in a replica,"Ixodes ricinus; 1 ppm, nymphs",1
same,detached adult ticks in a replica,"Ixodes ricinus; 100 ppm, adult ticks",1
same,mortality at 1 ppm,"Ixodes ricinus; adult ticks, 1 ppm, 1 h, read-out: average percentage of adult tick mortality (moribund or dead adult ticks)",0%
same,mortality at 1 ppm,"Ixodes ricinus; adult ticks, 1 ppm, 3 h, read-out: average percentage of adult tick mortality (moribund or dead adult ticks)",0%
same,mortality at 1 ppm,"Ixodes ricinus; adult ticks, 1 ppm, 6 h, read-out: average percentage of adult tick mortality (moribund or dead adult ticks)",3.1%
same,mortality at 1 ppm,"Ixodes ricinus; adult ticks, 1 ppm, 12 h, read-out: average percentage of adult tick mortality (moribund or dead adult ticks)",3.1%
same,mortality at 1 ppm,"Ixodes ricinus; adult ticks, 1 ppm, 24 h, read-out: average percentage of adult tick mortality (moribund or dead adult ticks)",64.2%
same,mortality at 1 ppm,"Ixodes ricinus; adult ticks, 1 ppm, 48 h, read-out: average percentage of adult tick mortality (moribund or dead adult ticks)",88.2%
same,mortality at 1 ppm,"Ixodes ricinus; adult ticks, 1 ppm, 72 h, read-out: average percentage of adult tick mortality (moribund or dead adult ticks)",100%
same,mortality at 1 ppm,"Ixodes ricinus; adult ticks, 1 ppm, 96 h, read-out: average percentage of adult tick mortality (moribund or dead adult ticks)",100%
same,mortality at 10 ppm,"Ixodes ricinus; adult ticks, 1 h, read-out: average percentage of adult tick mortality (moribund or dead adult ticks)",0%
same,mortality at 10 ppm,"Ixodes ricinus; adult ticks, 3 h, read-out: average percentage of adult tick mortality (moribund or dead adult ticks)",0%
same,mortality at 10 ppm,"Ixodes ricinus; adult ticks, 6 h, read-out: average percentage of adult tick mortality (moribund or dead adult ticks)",5.6%
same,mortality at 10 ppm,"Ixodes ricinus; adult ticks, 12 h, read-out: average percentage of adult tick mortality (moribund or dead adult ticks)",11.1%
same,mortality at 10 ppm,"Ixodes ricinus; adult ticks, 24 h, read-out: average percentage of adult tick mortality (moribund or dead adult ticks)",57.3%
same,mortality at 10 ppm,"Ixodes ricinus; adult ticks, 48 h, read-out: average percentage of adult tick mortality (moribund or dead adult ticks)",79.5%
same,mortality at 10 ppm,"Ixodes ricinus; adult ticks, 72 h, read-out: average percentage of adult tick mortality (moribund or dead adult ticks)",96.9%
same,mortality at 10 ppm,"Ixodes ricinus; adult ticks, 96 h, read-out: average percentage of adult tick mortality (moribund or dead adult ticks)",100%
same,mortality at 100 ppm,"Ixodes ricinus; adult ticks, 100 ppm, 1 h, read-out: average percentage of adult tick mortality (moribund or dead adult ticks)",0%
same,mortality at 100 ppm,"Ixodes ricinus; adult ticks, 100 ppm, 3 h, read-out: average percentage of adult tick mortality (moribund or dead adult ticks)",0%
same,mortality at 100 ppm,"Ixodes ricinus; adult ticks, 100 ppm, 6 h, read-out: average percentage of adult tick mortality (moribund or dead adult ticks)",5.9%
same,mortality at 100 ppm,"Ixodes ricinus; adult ticks, 100 ppm, 12 h, read-out: average percentage of adult tick mortality (moribund or dead adult ticks)",11.8%
same,mortality at 100 ppm,"Ixodes ricinus; adult ticks, 100 ppm, 24 h, read-out: average percentage of adult tick mortality (moribund or dead adult ticks)",63.9%
same,mortality at 100 ppm,"Ixodes ricinus; adult ticks, 100 ppm, 48 h, read-out: average percentage of adult tick mortality (moribund or dead adult ticks)",76.4%
same,mortality at 100 ppm,"Ixodes ricinus; adult ticks, 100 ppm, 72 h, read-out: average percentage of adult tick mortality (moribund or dead adult ticks)",91.3%
same,mortality at 100 ppm,"Ixodes ricinus; adult ticks, 100 ppm, 96 h, read-out: average percentage of adult tick mortality (moribund or dead adult ticks)",100%
same,mortality at 1 ppm,"Ixodes ricinus; nymphs, 1 ppm, 1 h, read-out: average percentage of mortality of tick nymphs (moribund or dead nymphs)",0%
same,mortality at 1 ppm,"Ixodes ricinus; nymphs, 1 ppm, 3 h, read-out: average percentage of mortality of tick nymphs (moribund or dead nymphs)",0%
same,mortality at 1 ppm,"Ixodes ricinus; nymphs, 1 ppm, 6 h, read-out: average percentage of mortality of tick nymphs (moribund or dead nymphs)",13.8%
same,mortality at 1 ppm,"Ixodes ricinus; nymphs, 1 ppm, 12 h, read-out: average percentage of mortality of tick nymphs (moribund or dead nymphs)",31.3%
same,mortality at 1 ppm,"Ixodes ricinus; nymphs, 1 ppm, 24 h, read-out: average percentage of mortality of tick nymphs (moribund or dead nymphs)",58.9%
same,mortality at 1 ppm,"Ixodes ricinus; nymphs, 1 ppm, 48 h, read-out: average percentage of mortality of tick nymphs (moribund or dead nymphs)",85.7%
same,mortality at 1 ppm,"Ixodes ricinus; nymphs, 1 ppm, 72 h, read-out: average percentage of mortality of tick nymphs (moribund or dead nymphs)",100%
same,mortality at 1 ppm,"Ixodes ricinus; nymphs, 1 ppm, 96 h, read-out: average percentage of mortality of tick nymphs (moribund or dead nymphs)",100%
same,mortality at 10 ppm,"Ixodes ricinus; nymphs, 1 h, read-out: average percentage of mortality of tick nymphs (moribund or dead nymphs)",0%
same,mortality at 10 ppm,"Ixodes ricinus; nymphs, 3 h, read-out: average percentage of mortality of tick nymphs (moribund or dead nymphs)",9.2%
same,mortality at 10 ppm,"Ixodes ricinus; nymphs, 6 h, read-out: average percentage of mortality of tick nymphs (moribund or dead nymphs)",24.9%
same,mortality at 10 ppm,"Ixodes ricinus; nymphs, 12 h, read-out: average percentage of mortality of tick nymphs (moribund or dead nymphs)",48.3%
same,mortality at 10 ppm,"Ixodes ricinus; nymphs, 24 h, read-out: average percentage of mortality of tick nymphs (moribund or dead nymphs)",83%
same,mortality at 10 ppm,"Ixodes ricinus; nymphs, 48 h, read-out: average percentage of mortality of tick nymphs (moribund or dead nymphs)",96.9%
same,mortality at 10 ppm,"Ixodes ricinus; nymphs, 72 h, read-out: average percentage of mortality of tick nymphs (moribund or dead nymphs)",100%
same,mortality at 10 ppm,"Ixodes ricinus; nymphs, 96 h, read-out: average percentage of mortality of tick nymphs (moribund or dead nymphs)",100%
same,mortality at 100 ppm,"Ixodes ricinus; nymphs, 100 ppm, 1 h, read-out: average percentage of mortality of tick nymphs (moribund or dead nymphs)",0%
same,mortality at 100 ppm,"Ixodes ricinus; nymphs, 100 ppm, 3 h, read-out: average percentage of mortality of tick nymphs (moribund or dead nymphs)",13.3%
same,mortality at 100 ppm,"Ixodes ricinus; nymphs, 100 ppm, 6 h, read-out: average percentage of mortality of tick nymphs (moribund or dead nymphs)",33%
same,mortality at 100 ppm,"Ixodes ricinus; nymphs, 100 ppm, 12 h, read-out: average percentage of mortality of tick nymphs (moribund or dead nymphs)",59%
same,mortality at 100 ppm,"Ixodes ricinus; nymphs, 100 ppm, 24 h, read-out: average percentage of mortality of tick nymphs (moribund or dead nymphs)",92.9%
same,mortality at 100 ppm,"Ixodes ricinus; nymphs, 100 ppm, 48 h, read-out: average percentage of mortality of tick nymphs (moribund or dead nymphs)",100%
same,mortality at 100 ppm,"Ixodes ricinus; nymphs, 100 ppm, 72 h, read-out: average percentage of mortality of tick nymphs (moribund or dead nymphs)",100%
same,mortality at 100 ppm,"Ixodes ricinus; nymphs, 100 ppm, 96 h, read-out: average percentage of mortality of tick nymphs (moribund or dead nymphs)",100%
same,"ticks affected (convulsion, morbidity or death of ticks)","Ixodes ricinus; from 1 hour of exposure, regardless of the concentration tested (1, 10, 100 ppm)",100%
same,mortality for Varroa mites,Varroa destructor; 0.1 μg/μL,100%
same,mortality for Varroa mites,Varroa destructor; 10 μg/μL,100%
